Assay results published in ChEMBL document CHEMBL6074689 (Eur J Med Chem, 2025).

Key:
Acetylcholinesterase = Acetylcholinesterase (Homo sapiens, UniProt P22303); assay: Inhibition of human recombinant AChE expressed in HEK293 cells using acetylthiocholine iodide as substrate preincubated with compound for 30 mins followed by substrate addition and measured after 30 mins by DTNB reagent based Ellman's method
Cholinesterase = Cholinesterase (Equus caballus, UniProt P81908); assay: Inhibition of equine serum BChE using acetylthiocholine iodide as substrate preincubated with compound for 30 mins followed by substrate addition and measured after 30 mins by DTNB reagent based Ellman's method
Cholinesterase, sequence (P81908 whole entry): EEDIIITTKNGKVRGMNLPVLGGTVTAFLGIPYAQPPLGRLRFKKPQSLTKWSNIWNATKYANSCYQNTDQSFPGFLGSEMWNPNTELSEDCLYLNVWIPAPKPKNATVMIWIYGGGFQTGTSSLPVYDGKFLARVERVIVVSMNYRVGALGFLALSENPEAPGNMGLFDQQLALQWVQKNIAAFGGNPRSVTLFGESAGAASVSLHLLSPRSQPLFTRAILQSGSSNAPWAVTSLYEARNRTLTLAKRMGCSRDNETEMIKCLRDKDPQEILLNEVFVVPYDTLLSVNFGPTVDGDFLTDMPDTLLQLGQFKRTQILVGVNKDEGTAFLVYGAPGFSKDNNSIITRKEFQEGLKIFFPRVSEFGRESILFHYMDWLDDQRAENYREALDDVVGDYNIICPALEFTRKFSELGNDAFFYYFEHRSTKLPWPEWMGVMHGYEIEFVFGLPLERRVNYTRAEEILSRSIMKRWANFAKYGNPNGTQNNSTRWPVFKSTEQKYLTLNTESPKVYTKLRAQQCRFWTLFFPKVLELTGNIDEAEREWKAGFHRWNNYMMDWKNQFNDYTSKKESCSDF

[1] = Antioxidant activity assessed as DPPH radical scavenging activity at 200 uM incubated for 30 mins relative to control; format: functional

Acetylcholinesterase, sequence (P22303 whole entry): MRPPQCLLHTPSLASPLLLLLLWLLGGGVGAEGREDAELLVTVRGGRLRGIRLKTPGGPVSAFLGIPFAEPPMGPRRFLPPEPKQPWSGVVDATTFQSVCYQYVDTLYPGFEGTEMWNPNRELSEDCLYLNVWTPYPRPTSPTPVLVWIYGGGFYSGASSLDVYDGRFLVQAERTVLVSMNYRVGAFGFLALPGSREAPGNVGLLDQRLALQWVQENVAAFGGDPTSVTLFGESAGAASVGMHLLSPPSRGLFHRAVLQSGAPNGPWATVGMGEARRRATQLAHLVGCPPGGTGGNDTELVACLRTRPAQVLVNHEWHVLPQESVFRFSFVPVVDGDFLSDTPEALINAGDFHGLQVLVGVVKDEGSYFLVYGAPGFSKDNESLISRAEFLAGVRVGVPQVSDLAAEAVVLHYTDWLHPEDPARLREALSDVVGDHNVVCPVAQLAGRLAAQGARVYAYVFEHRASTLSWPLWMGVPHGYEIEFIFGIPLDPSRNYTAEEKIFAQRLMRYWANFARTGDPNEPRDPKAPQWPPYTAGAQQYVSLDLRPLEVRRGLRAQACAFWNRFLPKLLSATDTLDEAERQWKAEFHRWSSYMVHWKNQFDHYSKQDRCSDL

Structure (SMILES): CC(c1cccc(OC(=O)NCCc2c[nH]c3ccccc23)c1)N(C)C (centres undefined)
- IC50 (Acetylcholinesterase): 24.5 nM
- IC50 (Cholinesterase): 14.8 nM

Structure (SMILES): COc1ccc2[nH]cc(CCNC(=O)Oc3cccc(C(C)N(C)C)c3)c2c1 (centres undefined)
- IC50 (Acetylcholinesterase): 48.3 nM
- IC50 (Cholinesterase): 13.6 nM

Structure (SMILES): CC(c1cccc(OC(=O)NCCc2c[nH]c3ccc(O)cc23)c1)N(C)C (centres undefined)
- IC50 (Acetylcholinesterase): 2.31 nM
- IC50 (Cholinesterase): 55.8 nM

Structure (SMILES): COc1ccc2[nH]cc(CCNC(=O)Oc3cccc([C@H](C)N(C)C)c3)c2c1
- IC50 (Acetylcholinesterase): 21.4 nM
- IC50 (Cholinesterase): 3.15 nM
- Activity [1]: 19.8%

Structure (SMILES): Cc1ccc2[nH]cc(CCNC(=O)Oc3cccc(C(C)N(C)C)c3)c2c1 (centres undefined)
- IC50 (Acetylcholinesterase): 73.3 nM
- IC50 (Cholinesterase): 38.7 nM

Structure (SMILES): CC(c1cccc(OC(=O)NCCc2c[nH]c3ccc(Cl)cc23)c1)N(C)C (centres undefined)
- IC50 (Acetylcholinesterase): 13.8 nM
- IC50 (Cholinesterase): 2.14 nM
- Activity [1]: 33.3%
